Results reported in PMC10531319, “Hemostatically Active Proteinase Produced by Aspergillus ochraceus: Key Specific Properties and Effect on Target Proteins” (International Journal of Molecular Sciences, 2023).
Non-standard residues stand in square brackets, D forms with d. Residues, ends and D or L forms follow the SMILES beside them. *: point of attachment. pNA = O=[N+]([O-])c1ccc(N*)cc1

Tested on: T1, A. ochraceus proteinase
T1 construct: native extracellular enzyme from culture liquid; about 35 kDa, non-glycosylated
Experiment: chromogenic assay, pNA release at […] nm, Lineweaver-Burk and Eadie-Hofstee plots
Format: biochemical, Aspergillus ochraceus
Settings: 0.05 M Tris-HCl pH 8.2, 37 °C; substrate 0.25-2.0 mg/mL

Km: 3.48 mM
SMILES: CC(C)C[C@@H](N)C(=O)N[C@@H](CCCCN)C(=O)Nc1ccc([N+](=O)[O-])cc1 [H-D-Leu-Lys-pNA] (H-[dL]-Lys-pNA)
